Data: ChEMBL document CHEMBL5321295, “Targeted Degradation of Alpha-Synuclein by Autophagosome-Anchoring Chimera Peptides” (J Med Chem, 2023)
Active and inactive are the calls of the source. No cut-off for these calls is given here.

Assays:
Alpha-synuclein [1] = target: T1, Alpha-synuclein (Homo sapiens, UniProt P37840); assay: Induction of alpha-synuclein (unknown origin) degradation overexpressed in HEK293T cells at 50 uM incubated for 24 hrs in presence of MG132 by immunoblot analysis; type: cell-based
[2] = Toxicity in C57BL/6 mouse assessed as change in cardiac electrophysiology at 50 to 100 mg/kg/day treated for 5 days by ECG analysis; type: organism-based; settings: in vivo, 120 h, dose 50-100 mg/kg/day, time 5 day
Mus musculus [3] = assay: Downregulation of phosphorylated alpha-synuclein at S129 residue level in substantia nigra pars compacta of MPTP-treated C57BL/6 mouse at 50 mg/kg/day, iv treated for 5 days by dot blot analysis; type: functional, organism-based; settings: time 5.0 day
HEK-293T [4] = assay: Downregulation of ELOB expression in HEK293T cells at 100 uM incubated for 24 hrs by proteomic profiling analysis; type: functional, cell-based; settings: Homo sapiens
[5] = target: T2, Microtubule-associated protein 1 light chain 3 beta (Homo sapiens, UniProt Q9GZQ8); assay: Binding affinity to biotinylated recombinant LC3B (unknown origin) assessed as dissociation constant by BLI assay
Mus musculus [6] = assay: Neuroprotective activity in MPTP-treated C57BL/6 mouse assessed as neuron viability in substantia nigra pars compacta at 50 mg/kg/day, iv treated for 5 days by Nissl staining based microscopy; type: functional, organism-based; settings: time 5.0 day
[7] = Drug localization in HEK293T cells overexpressing mCherry-fused alpha-synuclein (unknown origin) assessed as puncta formation of alpha-synuclein at 50 uM incubated for 2 hrs by MDC staining based confocal laser scanning microscopy; type: ADME, cell-based; settings: human, hek-293t
[8] = Toxicity in C57BL/6 mouse assessed as ataxia at 50 to 200 mg/kg/day treated for 5 days; type: organism-based; settings: in vivo, 120 h, dose 50-200 mg/kg/day, time 5 day
[9] = target: T2, Microtubule-associated protein 1 light chain 3 beta; assay: Induction of LC3B-mediated autophagy flux in HEK293T cells overexpressing alpha-synuclein (unknown origin) cotransfected with adenovirus-packaged plasmid encoding mCherry-EGFP-fused LC3B assessed as increase in number of autophagosomes incubated for 4 hrs by confocal laser scanning microscopy; type: cell-based; settings: dose <= 100.0 µM
Mus musculus [10] = assay: Neuroprotective activity in MPTP-induced anxiety-like status in C57BL/6 mouse assessed as increase in time spent in zone centers of mouse track at 50 mg/kg/day, iv treated for 5 days measured after 4 days by open field test; type: functional, organism-based; settings: time 9.0 day
[11] = target: T2, Microtubule-associated protein 1 light chain 3 beta; assay: Binding affinity to LC3B in HEK293T cells overexpressing alpha-synuclein (unknown origin) at 50 to 100 uM incubated for 4 hrs by co-IP assay; type: cell-based; settings: dose 50-100 µM
Mus musculus [12] = assay: Neuroprotective activity in MPTP-induced cognitive impairment in C57BL/6 mouse assessed as decrease in total distance travelled in navigation trial phase at 50 mg/kg/day, iv treated for 5 days measured after 5 to 8 days days by morris water maze test; type: functional, organism-based; settings: time 10-13 day
SH-SY5Y [13] = assay: Cytoprotective activity in human SH-SY5Y cells transfected with alpha-synuclein (unknown origin) assessed as viable cells at 100 uM measured after 24 hrs by […] based flow cytometry (reference value: 28.5 %); type: functional; settings: read-out: Activity
HEK-293T [14] = assay: Downregulation of MYL12A expression in HEK293T cells at 100 uM incubated for 24 hrs by proteomic profiling analysis; type: functional, cell-based; settings: Homo sapiens
[15] = Toxicity in C57BL/6 mouse assessed as histological change in heart at 50 to 200 mg/kg/day treated for 5 days by H and E staining based analysis; type: organism-based; settings: in vivo, 120 h, dose 50-200 mg/kg/day, time 5 day
[16] = target: T2, Microtubule-associated protein 1 light chain 3 beta; assay: Binding affinity to LC3B in HEK293T cells overexpressing alpha-synuclein (unknown origin) assessed as shift in denaturation at 50 uM incubated for 4 hrs followed by heating at 40 to 75 degreeC for 3 mins by CETSA assay; type: cell-based; settings: time 243.0 min
Mus musculus [17] = assay: Downregulation of phosphorylated alpha-synuclein at S129 residue level in substantia nigra pars compacta of MPTP-treated C57BL/6 mouse at 50 mg/kg/day, iv treated for 5 days by immunoblot analysis; type: functional, organism-based; settings: time 5.0 day
HEK-293T [18] = assay: Downregulation of SMAP expression in HEK293T cells at 100 uM incubated for 24 hrs by proteomic profiling analysis; type: functional, cell-based; settings: Homo sapiens
HEK-293T [19] = assay: Downregulation of NME1 expression in HEK293T cells at 100 uM incubated for 24 hrs by proteomic profiling analysis; type: functional, cell-based; settings: Homo sapiens
HEK-293T [20] = assay: Downregulation of THOP1 expression in HEK293T cells at 100 uM incubated for 24 hrs by proteomic profiling analysis; type: functional, cell-based; settings: Homo sapiens
Mus musculus [21] = assay: Neuroprotective activity in MPTP-induced anxiety-like status in C57BL/6 mouse assessed as increase in distance travelled in zone centers of mouse track at 50 mg/kg/day, iv treated for 5 days measured after 4 days by open field test; type: functional, organism-based; settings: time 9.0 day
Alpha-synuclein [22] = target: T1, Alpha-synuclein; assay: Binding affinity to alpha-synuclein (unknown origin) overexpressed in HEK293T cells assessed as shift in denaturation at 50 uM incubated for 4 hrs followed by heating at 40 to 75 degreeC for 3 mins by CETSA assay; type: cell-based; settings: time 243.0 min
[23] = Toxicity in C57BL/6 mouse assessed as histological change in liver at 50 to 200 mg/kg/day treated for 5 days by H and E staining based analysis; type: organism-based; settings: in vivo, 120 h, dose 50-200 mg/kg/day, time 5 day
SH-SY5Y [24] = assay: Cytoprotective activity in human SH-SY5Y cells transfected with alpha-synuclein (unknown origin) assessed as decrease in ROS level at 100 uM measured after 24 hrs by DCFH-DA staining based flow cytometry (reference value: 76 %); type: functional; set-up: scale not given: the % may be the effect or the level left
Alpha-synuclein [25] = target: T1, Alpha-synuclein; assay: Induction of EGFP-fused alpha-synuclein (unknown origin) degradation overexpressed in HEK293T cells co-expressing mCherry-fused LC3B assessed as puncta formation of alpha-synuclein at 50 uM incubated for 2 hrs by confocal laser scanning microscopy; type: cell-based
SH-SY5Y [26] = assay: Cytoprotective activity in human SH-SY5Y cells transfected with alpha-synuclein (unknown origin) assessed as decrease in ROS level at 100 uM measured after 24 hrs by confocal laser scanning microscopy/flow cytometry (reference value: 175.4 +/- 8.4 %); type: functional; set-up: scale not given: the % may be the effect or the level left
SH-SY5Y [27] = assay: Cytoprotective activity in human SH-SY5Y cells transfected with alpha-synuclein (unknown origin) assessed as cell viability at 25 uM by CCK8 assay relative to control; type: functional; settings: read-out: Activity
SH-SY5Y [28] = assay: Cytoprotective activity in human SH-SY5Y cells transfected with alpha-synuclein (unknown origin) assessed as early apoptotic cells at 100 uM measured after 24 hrs by […] based flow cytometry (reference value: 0.17 %); type: functional
Mus musculus [29] = assay: Neuroprotective activity in MPTP-induced cognitive impairment in C57BL/6 mouse assessed as increase in platform crossover number in probe trial phase at 50 mg/kg/day, iv treated for 5 days measured after 5 to 8 days days by morris water maze test; type: functional, organism-based; settings: time 10-13 day
[30] = Toxicity in C57BL/6 mouse assessed as reduction in ALT level at 200 mg/kg/day treated for 5 days; type: organism-based; settings: in vivo, 120 h, time 5 day
HEK-293T [31] = assay: Downregulation of BANF1 expression in HEK293T cells at 100 uM incubated for 24 hrs by proteomic profiling analysis; type: functional, cell-based; settings: Homo sapiens
Mus musculus [32] = assay: Neuroprotective activity in MPTP-induced cognitive impairment in C57BL/6 mouse assessed as increase in time spent in target quadrant in probe trial phase at 50 mg/kg/day, iv treated for 5 days measured after 5 to 8 days days by morris water maze test; type: functional, organism-based; settings: time 10-13 day

With `CC(C)C[C@H](NC(=O)[C@H](Cc1c[nH]cn1)NC(=O)[C@@H](NC(=O)[C@H](Cc1c[nH]c2ccccc12)NC(=O)[C@H](CC(=O)O)NC(=O)[C@H](CC(=O)O)NC(=O)[C@H](CC(=O)O)NC(=O)CNC(=O)CNC(=O)[C@H](CO)NC(=O)[C@H](CO)NC(=O)CNC(=O)[C@H](CO)NC(=O)CNC(=O)[C@H](CCCNC(=N)N)NC(=O)[C@@H](NC(=O)[C@H](CCCCN)NC(=O)[C@H](CO)NC(=O)CNC(=O)[C@@H](NC(=O)[C@H](Cc1ccc(O)cc1)NC(=O)[C@H](CC(C)C)NC(=O)[C@@H](NC(=O)CN)C(C)C)C(C)C)[C@H](C)O)[C@@H](C)O)C(=O)N[C@@H](CO)C(=O)N[C@@H](CO)C(=O)N[C@@H](Cc1ccc(O)cc1)C(=O)NCC(=O)N[C@@H](CCCNC(=N)N)C(=O)N[C@@H](CCCCN)C(=O)N[C@@H](CCCCN)C(=O)N[C@@H](CCCNC(=N)N)C(=O)N[C@@H](CCCNC(=N)N)C(=O)N[C@@H](CCC(N)=O)C(=O)N[C@@H](CCCNC(=N)N)C(=O)N[C@@H](CCCNC(=N)N)C(=O)N[C@@H](CCCNC(=N)N)C(=O)O` as the molecule, how does the Activity (Alpha-synuclein [1]) read?
Its Activity is “Active”.

What about the Activity [2] of the same molecule?
The Activity was “Non-Toxic”.

And the Activity (Mus musculus [3])?
The Activity was “Active”.

And the Activity (HEK-293T [4])?
The Activity was “Active”.

And the Kd [5]?
The Kd was 14.9 µM.

What about the Activity (Mus musculus [6]) of the same molecule?
The Activity was “Active”.

And the Drug uptake [7]?
Its Drug uptake is “Active”.

What about the Activity [8] of the same molecule?
Its Activity is “Non-Toxic”.

What about the Activity [9] of the same molecule?
The Activity was “Dose-Dependent Effect”.

And the Activity (Mus musculus [10])?
The Activity was “Active”.

What about the Activity [11] of the same molecule?
Its Activity is “Active”.

And the Activity (Mus musculus [12])?
Its Activity is “Active”.

And the viability at 100 µM (SH-SY5Y [13])?
Its viability at 100 µM is 15.5%.

And the Activity (HEK-293T [14])?
The Activity was “Active”.

And the Activity [15]?
The Activity was “Non-Toxic”.

And the Activity [16]?
Its Activity is “Active”.

And the Activity (Mus musculus [17])?
The Activity was “Active”.

What about the Activity (HEK-293T [18]) of the same molecule?
The Activity was “Active”.

And the Activity (HEK-293T [19])?
Its Activity is “Active”.

What about the Activity (HEK-293T [20]) of the same molecule?
The Activity was “Active”.

What about the Activity (Mus musculus [21]) of the same molecule?
The Activity was “Active”.

What about the Activity (Alpha-synuclein [22]) of the same molecule?
Its Activity is “Active”.

And the Activity [23]?
Its Activity is “Non-Toxic”.

And the Activity (SH-SY5Y [24])?
Its Activity is 26.7%.

What about the Activity (Alpha-synuclein [25]) of the same molecule?
Its Activity is “Active”.

And the Activity (SH-SY5Y [26])?
The Activity was 127.7%.

And the viability at 25 µM (SH-SY5Y [27])?
The viability at 25 µM was 85.6%.

What about the Activity (SH-SY5Y [28]) of the same molecule?
Its Activity is 0.76%.

What about the Activity (Mus musculus [29]) of the same molecule?
Its Activity is “Active”.

And the Activity [30]?
Its Activity is “Toxic”.

What about the Activity (HEK-293T [31]) of the same molecule?
Its Activity is “Active”.

And the Activity (Mus musculus [32])?
Its Activity is “Active”.
